Measured values reported in publication PMC9495681, “Examining Topoisomers of a Snake-Venom-Derived Peptide for Improved Antimicrobial and Antitumoral Properties” (Biomedicines, 2022).
Converted amounts (≈) assume the structure as drawn. Square brackets hold non-standard residues; d marks the D form. Peptide text beside a SMILES is read from it.

How the values were obtained:
[1] = system: A. baumannii (ATCC 15308); test: Minimal inhibitory concentration (MIC), broth microdilution; format: cell-based; details: Mueller Hinton Broth, 5 × 10^5 CFU/mL, 0.04% BSA and 0.002% acetic acid, 20–22 h at 37 °C, duplicate
Method: (§1) Assays were performed on three Gram-negative bacteria: E. coli (BW25113, Coli Genetic Stock Center), A. baumannii (ATCC 15308, CECT, Valencia, Spain), and Pseudomonas sp. (ATCC15915, CECT). The minimal inhibitory concentration (MIC) of each peptide was determined as described by Wiegand et al.. Peptide stocks in water were added to polypropylene 96-well plates (Greiner, Frickenhausen, Germany) and serially diluted from 100 to 0.2 μM. Fresh bacteria were incubated at 37 °C in Mueller Hinton Broth (MHB, Condalab, Torrejón de Ardoz, Spain) up to exponential growth and diluted to a final inoculum of 5 × 10^5 CFU/mL. BSA and acetic acid at 0.04% (w/v) and 0.002% (v/v) final concentration, respectively, were added to avoid peptide self-aggregation. Plates were incubated for 20–22 h at 37 °C. Each peptide was tested in duplicate. MIC values were the lowest peptide concentration where bacterial growth was not detected.

E. coli (BW25113) = test: as above; format: cell-based; details: Mueller Hinton Broth, 5 × 10^5 CFU/mL, 0.04% BSA and 0.002% acetic acid, 20–22 h at 37 °C, duplicate
Method: as §1

[2] = system: Pseudomonas sp. (ATCC15915); test: as above; format: cell-based; details: Mueller Hinton Broth, 5 × 10^5 CFU/mL, 0.04% BSA and 0.002% acetic acid, 20–22 h at 37 °C, duplicate
Method: as §1

1BR3G human fibroblasts = test: Peptide cytotoxicity (Cell Titer Blue viability); format: cell-based; details: 24 h treatment, medium with 2% FBS, Cell Titer Blue fluorescence, triplicate
Description: Human HeLa S3 (cervix epithelial carcinoma), leukemia Jurkat E6.1 (T-cell lineage), U937 (histiocytic lymphoma), THP-1 (acute monocytic leukemia), and 1BR3G human fibroblasts were obtained from the Cell Lines Repository of the Institut Municipal d’Investigació Medica (Barcelona, Spain). BxPC3 (pancreas adenocarcinoma), A549 (lung carcinoma), SH-Sy5Y (neuroblastoma), Panc1 (epithelioid carcinoma), 786-O (renal cell adenocarcinoma), and HT29 (colorectal adenocarcinoma) were obtained from the Integrative Biomedical Materials and Nanomedicine lab at UPF (Barcelona, Spain). HeLa S3, Jurkat E6.1, U937, THP-1, Panc1, and 786-O were cultured in Roswell Park Memorial Institute medium (RPMI) supplemented with 10% fetal bovine serum (FBS) and 1% penicillin/streptomycin solution and maintained at 37 °C in a humidified atmosphere with 5% of CO2. 1BR3G, BxPC3, A549, and HT29 were cultured in Dulbecco’s Modified Eagle’s Medium (DMEM) supplemented with 10% FBS and 1% penicillin/streptomycin solution and maintained at 37 °C in a humidified atmosphere with 5% of CO2. SH-Sy5Y was cultured in DMEM supplemented with 15% FBS and 1% penicillin/streptomycin and maintained at 37 °C in a humidified atmosphere with 5% of CO2. Cultures were maintained at 10^5–10^6 cell/mL densities. For 1BR3G human fibroblasts, BxPC3, A549, SH-Sy5Y, Panc1, 786-O, and HT29 were split every time they reached 80–90% of confluence after harvesting with PBS and trypsin.
About 60,000 cells were added to different microfuge tubes containing 2-fold serial dilution of the peptide, with a final concentration in the range between 0.1–100 μM in RPMI containing 2% of FBS. After 30 min incubation at 37 °C and 5% of CO2, […] of medium containing approximately 10,000 treated cells were transferred to a 96-well plate. Then, 15 μL of Cell Titer Blue dye (Promega, Madison, WI, USA) was added, and plates were reincubated for 24 h. Fluorescence was read at 4 and 24 h after dye addition in a Synergy HTX (BioTek, Winooski, VT, USA) reader, with λexc = 560 nm and λem = 620 nm. In the case of adherent cultures, 5000 cells/well were seeded in 96-well plates. After 24 h incubation at 37 °C and 5% of CO2, the medium was removed, and a new medium with 2% of FBS containing the various 2-fold dilution of the peptides was added. After a further 30 min, 15 μL of Cell Titer Blue dye was added to each well, and the measurement was done as above. Relative viability was calculated relative to a cell with only 2% FBS in the corresponding medium as a control (100% viability). All assays were conducted in triplicate.

Serum stability = format: in vitro ADME; details: 0.5 mL each of human serum (Sigma-Aldrich) and peptide (1 mM in water), 37 °C with stirring, trichloroacetic acid treatment, HPLC / LC-MS; for remaining at 24 h, 0.5 mM: 24 h (1440 min), read-out: Peptide remaining in human serum after 24 h
Method: Briefly, 0.5 mL each of human serum (Sigma-Aldrich, St. Louis, MO, USA) and peptide (1 mM in water) were mixed and incubated for 24 h at 37 °C with stirring. Aliquots (0.1 mL) were taken at 0, 1, 5, 10, 30, 120, 360 and 1440 min and treated with 20 μL of trichloroacetic acid (15% (v/v) in water). The suspension was centrifuged for 30 min at 4 °C and 13,000 rpm, and the supernatant was analyzed by HPLC as described above.

| Structure (SMILES) | MIC A. baumannii [1] [µM] | MIC E. coli (E. coli (BW25113)) [µM] | MIC Pseudomonas sp. [2] [µM] | IC50 (cell viability) human fibroblast 1BR3G (1BR3G human fibroblasts) | remaining at 24 h, 0.5 mM (Serum stability) [%] | half-life at 0.5 mM (Serum stability; aliquots 0–1440 min, read-out: t1/2 in human serum) [h] |
| --- | --- | --- | --- | --- | --- | --- |
| CC[C@@H](C)[C@@H](NC(=O)[C@@H](CCCCN)NC(=O)[C@@H](CCCCN)NC(=O)[C@@H](CC(C)C)NC(=O)[C@@H](CCCNC(=N)N)NC(=O)[C@@H](CCCCN)NC(=O)[C@@H](CCCCN)NC(=O)[C@H](NC(=O)[C@@H](CO)NC(=O)[C@@H](CCCCN)NC(=O)[C@@H](CCCCN)NC(=O)[C@H](NC(=O)[C@@H](CCCCN)NC(=O)[C@@H](CCCCN)NC(=O)[C@@H](Cc1ccccc1)NC(=O)[C@@H](Cc1ccccc1)NC(=O)[C@@H](CCCCN)NC(=O)[C@@H](CCCCN)NC(=O)[C@@H](Cc1ccccc1)NC(=O)[C@@H](CCCNC(=N)N)NC(=O)[C@H](N)CCCCN)C(C)C)C(C)C)C(=O)N[C@H](Cc1ccccc1)C(=O)N[C@H](CCCCN)C(=O)N[C@H](CCCCN)C(=O)N1CCC[C@@H]1C(=O)N[C@H](CCSC)C(=O)N[C@@H](C(=O)N[C@@H](C(=O)NCC(=O)N[C@@H](C(=O)N[C@@H](C(=O)N[C@@H](C(=O)N1CCC[C@@H]1C(=O)N[C@H](Cc1ccccc1)C(N)=O)[C@H](C)CC)[C@H](C)O)C(C)C)[C@H](C)CC)C(C)C [Ctn enantio] (H-[dK][dR][dF][dK][dK][dF][dF][dK][dK][dV][dK][dK][dS][dV][dK][dK][dR][dL][dK][dK][dI][dF][dK][dK][dP][dM][dV][dI]G[dV][dT][dI][dP][dF]-NH2) | 1.56 (≈ 6.48 µg/mL) | 0.39 (≈ 1.62 µg/mL) | 0.39 (≈ 1.62 µg/mL) | 2.7 µM | 30 |  |
| CC[C@H](C)[C@H](NC(=O)CNC(=O)[C@@H](NC(=O)[C@@H](NC(=O)[C@@H](NC(=O)[C@@H]1CCCN1C(=O)[C@@H](N)Cc1ccccc1)[C@@H](C)CC)[C@@H](C)O)C(C)C)C(=O)N[C@H](C(=O)N[C@@H](CCSC)C(=O)N1CCC[C@H]1C(=O)N[C@@H](CCCCN)C(=O)N[C@@H](CCCCN)C(=O)N[C@@H](Cc1ccccc1)C(=O)N[C@H](C(=O)N[C@@H](CCCCN)C(=O)N[C@@H](CCCCN)C(=O)N[C@@H](CC(C)C)C(=O)N[C@@H](CCCNC(=N)N)C(=O)N[C@@H](CCCCN)C(=O)N[C@@H](CCCCN)C(N)=O)[C@@H](C)CC)C(C)C [Ctn[15-34] retro] (H-FPITVGIVMPKKFIKKLRKK-NH2) | 0.78 (≈ 1.85 µg/mL) | 0.16 (≈ 0.379 µg/mL) | <0.05 | ≈ 15.84 μM |  |  |
| CC[C@@H](C)[C@@H](NC(=O)CNC(=O)[C@H](NC(=O)[C@H](NC(=O)[C@H](NC(=O)[C@H]1CCCN1C(=O)[C@H](N)Cc1ccccc1)[C@H](C)CC)[C@H](C)O)C(C)C)C(=O)N[C@@H](C(=O)N[C@H](CCSC)C(=O)N1CCC[C@@H]1C(=O)N[C@H](CCCCN)C(=O)N[C@H](CCCCN)C(=O)N[C@H](Cc1ccccc1)C(=O)N[C@@H](C(=O)N[C@H](CCCCN)C(=O)N[C@H](CCCCN)C(=O)N[C@H](CC(C)C)C(=O)N[C@H](CCCNC(=N)N)C(=O)N[C@H](CCCCN)C(=O)N[C@H](CCCCN)C(=O)N[C@@H](C(=O)N[C@H](CO)C(=O)N[C@H](CCCCN)C(=O)N[C@H](CCCCN)C(=O)N[C@@H](C(=O)N[C@H](CCCCN)C(=O)N[C@H](CCCCN)C(=O)N[C@H](Cc1ccccc1)C(=O)N[C@H](Cc1ccccc1)C(=O)N[C@H](CCCCN)C(=O)N[C@H](CCCCN)C(=O)N[C@H](Cc1ccccc1)C(=O)N[C@H](CCCNC(=N)N)C(=O)N[C@H](CCCCN)C(N)=O)C(C)C)C(C)C)[C@H](C)CC)C(C)C [Ctn retroenantio] (H-[dF][dP][dI][dT][dV]G[dI][dV][dM][dP][dK][dK][dF][dI][dK][dK][dL][dR][dK][dK][dV][dS][dK][dK][dV][dK][dK][dF][dF][dK][dK][dF][dR][dK]-NH2) | 1.56 (≈ 6.48 µg/mL) | 0.78 (≈ 3.24 µg/mL) | 0.78 (≈ 3.24 µg/mL) | 4.3 µM | 40 |  |
| CC[C@@H](C)[C@@H](NC(=O)[C@@H](CCCCN)NC(=O)[C@@H](CCCCN)NC(=O)[C@@H](CC(C)C)NC(=O)[C@@H](CCCNC(=N)N)NC(=O)[C@@H](CCCCN)NC(=O)[C@H](N)CCCCN)C(=O)N[C@H](Cc1ccccc1)C(=O)N[C@H](CCCCN)C(=O)N[C@H](CCCCN)C(=O)N1CCC[C@@H]1C(=O)N[C@H](CCSC)C(=O)N[C@@H](C(=O)N[C@@H](C(=O)NCC(=O)N[C@@H](C(=O)N[C@@H](C(=O)N[C@@H](C(=O)N1CCC[C@@H]1C(=O)N[C@H](Cc1ccccc1)C(N)=O)[C@H](C)CC)[C@H](C)O)C(C)C)[C@H](C)CC)C(C)C [Ctn[15-34] enantio] (H-[dK][dK][dR][dL][dK][dK][dI][dF][dK][dK][dP][dM][dV][dI]G[dV][dT][dI][dP][dF]-NH2) | 0.39 (≈ 0.925 µg/mL) | 0.16 (≈ 0.379 µg/mL) | 0.1 (≈ 0.237 µg/mL) |  |  |  |
| CC[C@H](C)[C@H](NC(=O)CNC(=O)[C@@H](NC(=O)[C@@H](NC(=O)[C@@H](NC(=O)[C@@H]1CCCN1C(=O)[C@@H](N)Cc1ccccc1)[C@@H](C)CC)[C@@H](C)O)C(C)C)C(=O)N[C@H](C(=O)N[C@@H](CCSC)C(=O)N1CCC[C@H]1C(=O)N[C@@H](CCCCN)C(=O)N[C@@H](CCCCN)C(=O)N[C@@H](Cc1ccccc1)C(=O)N[C@H](C(=O)N[C@@H](CCCCN)C(=O)N[C@@H](CCCCN)C(=O)N[C@@H](CC(C)C)C(=O)N[C@@H](CCCNC(=N)N)C(=O)N[C@@H](CCCCN)C(=O)N[C@@H](CCCCN)C(=O)N[C@H](C(=O)N[C@@H](CO)C(=O)N[C@@H](CCCCN)C(=O)N[C@@H](CCCCN)C(=O)N[C@H](C(=O)N[C@@H](CCCCN)C(=O)N[C@@H](CCCCN)C(=O)N[C@@H](Cc1ccccc1)C(=O)N[C@@H](Cc1ccccc1)C(=O)N[C@@H](CCCCN)C(=O)N[C@@H](CCCCN)C(=O)N[C@@H](Cc1ccccc1)C(=O)N[C@@H](CCCNC(=N)N)C(=O)N[C@@H](CCCCN)C(N)=O)C(C)C)C(C)C)[C@@H](C)CC)C(C)C [Ctn retro] (H-FPITVGIVMPKKFIKKLRKKVSKKVKKFFKKFRK-NH2) | 1.56 (≈ 6.48 µg/mL) | 0.78 (≈ 3.24 µg/mL) | 1.56 (≈ 6.48 µg/mL) |  |  |  |
| CC[C@@H](C)[C@@H](NC(=O)CNC(=O)[C@H](NC(=O)[C@H](NC(=O)[C@H](NC(=O)[C@H]1CCCN1C(=O)[C@H](N)Cc1ccccc1)[C@H](C)CC)[C@H](C)O)C(C)C)C(=O)N[C@@H](C(=O)N[C@H](CCSC)C(=O)N1CCC[C@@H]1C(=O)N[C@H](CCCCN)C(=O)N[C@H](CCCCN)C(=O)N[C@H](Cc1ccccc1)C(=O)N[C@@H](C(=O)N[C@H](CCCCN)C(=O)N[C@H](CCCCN)C(=O)N[C@H](CC(C)C)C(=O)N[C@H](CCCNC(=N)N)C(=O)N[C@H](CCCCN)C(=O)N[C@H](CCCCN)C(N)=O)[C@H](C)CC)C(C)C [Ctn[15-34] retroenantio] (H-[dF][dP][dI][dT][dV]G[dI][dV][dM][dP][dK][dK][dF][dI][dK][dK][dL][dR][dK][dK]-NH2) | 0.39 (≈ 0.925 µg/mL) | 0.16 (≈ 0.379 µg/mL) | 0.1 (≈ 0.237 µg/mL) |  |  | 15.3 |
